Test results as given in article PMC5598135 (Toxicology Reports, 2014).

Molecular target: mTOR kinase (Homo sapiens, UniProt P42345)
Experiment: cell-free ELISA kinase assay
Assay type: biochemical

`O=C1NC(c2cccc3ncccc23)Nc2ccccc21` (stereo not shown) [DQQ, 2,3-dihydro-2-(quinoline-5-yl) quinazolin-4(1H)-one] was tested, and the IC50 was 6 nM.
